IC50 data for 26 compounds are collected here from US20250376468A1, “PYRAZOLO[1,5-a]PYRIDINE DERIVATIVES FOR TREATING TRPM3-MEDIATED DISORDERS” (Katholieke Universiteit Leuven, priority 2022, published 2025).

In this assay the target is T1, mouse TRPM3α2 (mTRPM3) ion channel (Mus musculus, UniProt J9SQF3).
T1 construct: expressed in transfected cells; host or cells: flip-in HEK293 (Flp-In HEK293) overexpressing mTRPM3alpha2
T1 sequence (J9SQF3 1-1709 isoform J9SQF3-12): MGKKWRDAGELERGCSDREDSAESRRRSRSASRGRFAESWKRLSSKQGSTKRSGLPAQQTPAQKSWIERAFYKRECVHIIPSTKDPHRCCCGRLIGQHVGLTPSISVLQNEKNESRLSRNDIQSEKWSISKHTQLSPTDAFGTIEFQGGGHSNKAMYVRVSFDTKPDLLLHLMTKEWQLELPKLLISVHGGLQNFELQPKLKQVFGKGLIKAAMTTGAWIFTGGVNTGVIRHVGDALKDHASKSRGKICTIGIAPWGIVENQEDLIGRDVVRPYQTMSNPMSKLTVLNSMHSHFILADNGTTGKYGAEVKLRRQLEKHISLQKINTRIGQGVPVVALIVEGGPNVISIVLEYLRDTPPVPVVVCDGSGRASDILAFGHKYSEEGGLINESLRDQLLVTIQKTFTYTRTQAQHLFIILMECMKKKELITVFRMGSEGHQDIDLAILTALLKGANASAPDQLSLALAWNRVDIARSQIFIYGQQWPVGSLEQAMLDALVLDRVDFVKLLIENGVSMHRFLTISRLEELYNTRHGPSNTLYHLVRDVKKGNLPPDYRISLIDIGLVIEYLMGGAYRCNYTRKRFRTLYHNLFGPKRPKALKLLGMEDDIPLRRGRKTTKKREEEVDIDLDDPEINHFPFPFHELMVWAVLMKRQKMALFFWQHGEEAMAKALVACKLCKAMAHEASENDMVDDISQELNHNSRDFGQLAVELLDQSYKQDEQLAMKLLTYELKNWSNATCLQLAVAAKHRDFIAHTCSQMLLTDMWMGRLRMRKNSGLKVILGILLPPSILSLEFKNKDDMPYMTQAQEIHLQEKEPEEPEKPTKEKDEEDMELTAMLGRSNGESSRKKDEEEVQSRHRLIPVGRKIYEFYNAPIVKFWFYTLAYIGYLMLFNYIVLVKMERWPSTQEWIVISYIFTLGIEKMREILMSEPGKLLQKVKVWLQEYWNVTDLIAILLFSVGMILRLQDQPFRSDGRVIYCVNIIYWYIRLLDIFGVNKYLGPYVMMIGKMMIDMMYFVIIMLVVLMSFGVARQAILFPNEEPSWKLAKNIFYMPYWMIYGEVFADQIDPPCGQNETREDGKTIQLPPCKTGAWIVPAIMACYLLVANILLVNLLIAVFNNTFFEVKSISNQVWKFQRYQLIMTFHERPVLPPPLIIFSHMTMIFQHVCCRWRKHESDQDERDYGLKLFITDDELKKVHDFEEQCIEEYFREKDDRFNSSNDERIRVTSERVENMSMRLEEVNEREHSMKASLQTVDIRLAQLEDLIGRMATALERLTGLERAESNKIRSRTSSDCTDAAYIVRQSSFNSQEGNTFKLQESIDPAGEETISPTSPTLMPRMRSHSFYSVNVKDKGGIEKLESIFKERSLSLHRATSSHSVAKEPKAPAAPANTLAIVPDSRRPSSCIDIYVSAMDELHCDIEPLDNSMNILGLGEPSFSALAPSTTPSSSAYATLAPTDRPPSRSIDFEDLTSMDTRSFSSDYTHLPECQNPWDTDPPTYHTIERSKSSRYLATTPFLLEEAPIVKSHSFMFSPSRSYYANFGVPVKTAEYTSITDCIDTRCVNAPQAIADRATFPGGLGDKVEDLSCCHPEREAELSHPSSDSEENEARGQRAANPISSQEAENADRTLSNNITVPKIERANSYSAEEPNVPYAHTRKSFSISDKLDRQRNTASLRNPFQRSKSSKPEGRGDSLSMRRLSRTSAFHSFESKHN
Kind of assay: TRPM3 ion channel driven Ca2+ uptake, Fluo-4 AM assay, stimulated with pregnenolone sulfate (50 μM). The assay is classed as cell-based. The note with it: TRPM3 overexpressing flip-in HEK293 cells, PS 50 μM, 2.4 mM Ca2+. The method, then: In order to monitor the inhibition of the mouse TRPM3α2 (mTRPM3) ion channel by the compounds of the invention, a cellular system making use of an mTRPM3alpha2 or hTRPM3 overexpressing cell line (flip-in HEK293) was used. The TRPM3 channel was stimulated/opened with Pregnenolone sulfate (PS) (50 μM) which results in Ca^2+ influx.
For mTRPM3, the intracellular Ca^2+ was measured with a Calcium responsive dye, Fluor-4 AM ester (Invitrogen). Cells were cultured until a confluence of 80-90%, washed with Versene (Invitrogen) and detached from the surface by a short incubation with 0.05% Trypsin (Invitrogen). The […] was stopped by the addition of complete cell culture medium (DMEM, glutamax, 10% FCS, NEAA, Pen-Strep). Cells were collected and resuspended in Krebs buffer without Calcium at RT.
Prior the cell seeding (±2000 cells/well into a black, 384 well plate (Greiner)) the diluted compound was added in the assay plate, together with the PS dissolved in Krebs buffer containing Calcium. […] Directly after cell addition the plates were read on an Envision fluorescence reader (Perkin Elmer) by an Excitation of 485 nm and emission at 535 nm.
Channel inhibition was calculated compared to a non-PS stimulated control versus a condition stimulated with PS (50 μM) with vehicle. The ability of the compounds of the invention to inhibit this activity was determined as: Percentage inhibition=[1−((RFU determined for sample with test compound present−RFU determined for sample with positive control inhibitor) divided by (RFU determined in the presence of vehicle−RFU determined for sample with positive control inhibitor))]*100.
The activities of the Example compounds cpd 001-091 tested are depicted in the table below. All tested compounds show an activity in the Fluo-4 AM assay. The activity ranges A, B and C refer to IC50 values in the Fluo-4 AM assay as follows: “A”: IC50<1 μM; “B”: 1 μM≤IC50≤20 μM and “C”: IC50>20 μM.
What is called IC50 is the concentration that inhibits the measured activity by half. The low end stands for greater potency, the high end for weaker potency. The compound `Cc1nn2ccc(OCc3ccccn3)cc2c1C(=O)N[C@@]1(CO)C[C@H]1C(F)F` (relative stereo) [Cpd 072 - En1, N-[cis-2-(difluoromethyl)-1-(hydroxymethyl)cyclopropyl]-2-methyl-5-[(pyridin-2-yl)methoxy]pyrazolo[1,5-a]pyridine-3-carboxamide] registered an IC50 of 1 to 20 µM. Take `Cc1nn2ccc(OCc3ccccn3)cc2c1C(=O)N[C@@]1(CO)C[C@H]1C(F)F` (relative stereo) [Cpd 072 - En2, N-[cis-2-(difluoromethyl)-1-(hydroxymethyl)cyclopropyl]-2-methyl-5-[(pyridin-2-yl)methoxy]pyrazolo[1,5-a]pyridine-3-carboxamide]: the IC50 is over 20 µM. `CNC(=O)C(C)(CO)NC(=O)c1c(C)nn2ccc(OCc3ccccc3F)cc12` (single isomer, unassigned) [Cpd 011 - En1, 2-({5-[(2-fluorophenyl)methoxy]-2-methylpyrazolo[1,5-a]pyridin-3-yl}formamido)-3-hydroxy-N,2-dimethylpropanamide]: the IC50 is under 1 µM. For `CNC(=O)C(C)(CO)NC(=O)c1c(C)nn2ccc(OCc3ccccc3F)cc12` (single isomer, unassigned) [Cpd 011 - En2, 2-({5-[(2-fluorophenyl)methoxy]-2-methylpyrazolo[1,5-a]pyridin-3-yl}formamido)-3-hydroxy-N,2-dimethylpropanamide] the value was 1 to 20 µM; for `Cc1nn2ccc(OCc3ccccc3F)cc2c1C(=O)NC1(CO)CCNC1=O` (single isomer, unassigned) [Cpd 018 - En1, 5-[(2-fluorophenyl)methoxy]-N-[3-(hydroxymethyl)-2-oxopyrrolidin-3-yl]-2-methylpyrazolo[1,5-a]pyridine-3-carboxamide], 1 to 20 µM; for `Cc1nn2ccc(OCc3ccccc3F)cc2c1C(=O)NC1(CO)CCNC1=O` (single isomer, unassigned) [Cpd 018 - En2, 5-[(2-fluorophenyl)methoxy]-N-[3-(hydroxymethyl)-2-oxopyrrolidin-3-yl]-2-methylpyrazolo[1,5-a]pyridine-3-carboxamide], under 1 µM.

For `Cc1nn2ccc(OCc3ccccc3Cl)cc2c1C(=O)NC(C)(CO)C(N)=O` (single isomer, unassigned) [Cpd 019 - En1, 2-({5-[(2-chlorophenyl)methoxy]-2-methylpyrazolo[1,5-a]pyridin-3-yl}formamido)-3-hydroxy-2-methylpropanamide], the IC50 is under 1 µM. Then `Cc1nn2ccc(OCc3ccccc3Cl)cc2c1C(=O)NC(C)(CO)C(N)=O` (single isomer, unassigned) [Cpd 019 - En2, 2-({5-[(2-chlorophenyl)methoxy]-2-methylpyrazolo[1,5-a]pyridin-3-yl}formamido)-3-hydroxy-2-methylpropanamide], with 1 to 20 µM; and `Cc1nn2ccc(OCc3ccccc3F)cc2c1C(=O)NC(C)(CO)C(N)=O` (single isomer, unassigned) [Cpd 020 - En1, 2-({5-[(2-fluorophenyl)methoxy]-2-methylpyrazolo[1,5-a]pyridin-3-yl}formamido)-3-hydroxy-2-methylpropanamide], with under 1 µM. Then `Cc1nn2ccc(OCc3ccccc3F)cc2c1C(=O)NC(C)(CO)C(N)=O` (single isomer, unassigned) [Cpd 020 - En2, 2-({5-[(2-fluorophenyl)methoxy]-2-methylpyrazolo[1,5-a]pyridin-3-yl}formamido)-3-hydroxy-2-methylpropanamide], with 1 to 20 µM; and `Cc1nn2ccc(OCc3ccccc3F)cc2c1C(=O)N(C)C(C)(CO)C(N)=O` (single isomer, unassigned) [Cpd 024 - En1, 2-(1-{5-[(2-fluorophenyl)methoxy]-2-methylpyrazolo[1,5-a]pyridin-3-yl}-N-methylformamido)-3-hydroxy-2-methylpropanamide], with 1 to 20 µM; and `Cc1nn2ccc(OCc3ccccc3F)cc2c1C(=O)N(C)C(C)(CO)C(N)=O` (single isomer, unassigned) [Cpd 024 - En2, 2-(1-{5-[(2-fluorophenyl)methoxy]-2-methylpyrazolo[1,5-a]pyridin-3-yl}-N-methylformamido)-3-hydroxy-2-methylpropanamide], with 1 to 20 µM. For `Cc1nn2ccc(OCc3ccccn3)cc2c1C(=O)NC(C)(CO)CC(F)F` (single isomer, unassigned) [Cpd 038 - En1, N-(4,4-difluoro-1-hydroxy-2-methylbutan-2-yl)-2-methyl-5-[(pyridin-2-yl)methoxy]pyrazolo[1,5-a]pyridine-3-carboxamide] the value was 1 to 20 µM; for `Cc1nn2ccc(OCc3ccccn3)cc2c1C(=O)NC(C)(CO)CC(F)F` (single isomer, unassigned) [Cpd 038 - En2, N-(4,4-difluoro-1-hydroxy-2-methylbutan-2-yl)-2-methyl-5-[(pyridin-2-yl)methoxy]pyrazolo[1,5-a]pyridine-3-carboxamide], under 1 µM. `Cc1nn2ccc(OCc3ccccn3)cc2c1C(=O)NC1CNCCC1(F)F` (single isomer, unassigned) [Cpd 050 - En1, N-(4,4-difluoropiperidin-3-yl)-2-methyl-5-[(pyridin-2-yl)methoxy]pyrazolo[1,5-a]pyridine-3-carboxamide]: the IC50 was over 20 µM. Regarding `Cc1nn2ccc(OCc3ccccn3)cc2c1C(=O)NC1CNCCC1(F)F` (single isomer, unassigned) [Cpd 050 - En2, N-(4,4-difluoropiperidin-3-yl)-2-methyl-5-[(pyridin-2-yl)methoxy]pyrazolo[1,5-a]pyridine-3-carboxamide], the IC50 fell in the range of 1 to 20 µM. Take `Cc1nn2ccc(OCc3ccccn3)cc2c1C(=O)NC1CNCC(F)(F)C1` (single isomer, unassigned) [Cpd 052 - En1, N-(5,5-difluoropiperidin-3-yl)-2-methyl-5-[(pyridin-2-yl)methoxy]pyrazolo[1,5-a]pyridine-3-carboxamide]: the concentration for half-maximal inhibition (IC50) was in the range of 1 to 20 µM. The compound `Cc1nn2ccc(OCc3ccccn3)cc2c1C(=O)NC1CNCC(F)(F)C1` (single isomer, unassigned) [Cpd 052 - En2, N-(5,5-difluoropiperidin-3-yl)-2-methyl-5-[(pyridin-2-yl)methoxy]pyrazolo[1,5-a]pyridine-3-carboxamide] yielded an IC50 of over 20 µM. In the case of `Cc1nn2ccc(OCc3ccccn3)cc2c1C(=O)NC(C)(CO)C(N)=O` (single isomer, unassigned) [Cpd 089 - En1, 3-hydroxy-2-methyl-2-({2-methyl-5-[(pyridin-2-yl)methoxy]pyrazolo[1,5-a]pyridin-3-yl}formamido)propanamide], the IC50 was over 20 µM.

Compound `Cc1nn2ccc(OCc3ccccn3)cc2c1C(=O)NC(C)(CO)C(N)=O` (single isomer, unassigned) [Cpd 089 - En2, 3-hydroxy-2-methyl-2-({2-methyl-5-[(pyridin-2-yl)methoxy]pyrazolo[1,5-a]pyridin-3-yl}formamido)propanamide] had an IC50 of under 1 µM. On to `CCC(CO)(NC(=O)c1c(C)nn2ccc(OCc3ccccc3F)cc12)C(N)=O` (centres unmarked) [Cpd 001, 2-({5-[(2-fluorophenyl)methoxy]-2-methylpyrazolo[1,5-a]pyridin-3-yl}formamido)-2-(hydroxymethyl)butanamide], for which the IC50 was under 1 µM. Then `Cc1nn2ccc(OCc3ccccc3F)cc2c1C(=O)NC(C)(CO)CO` [Cpd 002, N-(1,3-dihydroxy-2-methylpropan-2-yl)-5-[(2-fluorophenyl)methoxy]-2-methylpyrazolo[1,5-a]pyridine-3-carboxamide], with 1 to 20 µM; and `Cc1nn2ccc(OCc3ccccc3F)cc2c1C(=O)N[C@@H](CO)C(N)=O` [Cpd 003, (2S)-2-({5-[(2-fluorophenyl)methoxy]-2-methylpyrazolo[1,5-a]pyridin-3-yl}formamido)-3-hydroxypropanamide], with under 1 µM; and `Cc1nn2ccc(OCc3ccccc3F)cc2c1C(=O)NC(C)(C)C(N)=O` [Cpd 004, 2-({5-[(2-fluorophenyl)methoxy]-2-methylpyrazolo[1,5-a]pyridin-3-yl}formamido)-2-methylpropanamide], with 1 to 20 µM. For `Cc1nn2ccc(OCc3ccccc3F)cc2c1C(=O)NCCNS(C)(=O)=O` [Cpd 005, 5-[(2-fluorophenyl)methoxy]-N-(2-methanesulfonamidoethyl)-2-methylpyrazolo[1,5-a]pyridine-3-carboxamide] the value was 1 to 20 µM; for `Cc1nn2ccc(OCc3ccccc3F)cc2c1C(=O)NCC(F)F` [Cpd 006, N-(2,2-difluoroethyl)-5-[(2-fluorophenyl)methoxy]-2-methylpyrazolo[1,5-a]pyridine-3-carboxamide], 1 to 20 µM.
